Measured values as given in US6337344B1, “Indole derivatives as inhibitors or factor Xa” (Aventis Pharma Deutschland GmbH, priority 1997, dated 2002).
Structures can show the parent of a compound that is named as a salt.

Compound | melting point
CC(=O)O.CC(=O)O.N=C(N)c1cccc(COC(=O)c2cc3cc(OCc4ccccc4)ccc3n2Cc2cccc(C(=N)N)c2)c1 | 147 °C (dec.)
C[N+](C)(Cc1ccccc1)c1ccc(CNC(=O)c2cc3cc(F)ccc3n2Cc2cccc(C(=N)N)c2)cc1.Cl.[Cl-] | 136 °C
N=C(N)c1cccc(Cn2c(C(=O)NCc3ccc(Cl)cc3)cc3ccccc32)c1.O=C(O)C(F)(F)F | 230 °C (dec.)
C[n+]1ccc(CNC(=O)c2cc3cc(N)ccc3n2Cc2cccc(C(=N)N)c2)cc1.O=C(O)C(F)(F)F.O=C(O)C(F)(F)F.O=C([O-])C(F)(F)F | 115 °C
N=C(N)c1cccc(CNC(=O)c2cc3cc(O)ccc3n2Cc2cccc(C(=N)N)c2)c1.O=C(O)C(F)(F)F.O=C(O)C(F)(F)F | 125 °C (dec.)
N/C(=N\O)c1cccc(COC(=O)c2cc3ccccc3n2Cc2cccc(/C(N)=N/O)c2)c1 [Example 53, 1-(3-Hydroxyamidino-benzyl)-1H-indole-2-carboxylic acid (3-hydroxyamidino-benzyl)ester] | 114 to 116 °C
N=C(N)c1cccc(Cn2c(C(N)=O)cc3ccccc32)c1.O=C(O)C(F)(F)F | 278 °C (dec.)
C[N+](C)(C)c1ccc(CNC(=O)c2cc3cc(O)ccc3n2Cc2cccc(C(=N)N)c2)cc1.O=C(O)C(F)(F)F.O=C([O-])C(F)(F)F | 78 °C (dec.)
CN(C)c1ccc(CNC(=O)c2cc3cc(F)ccc3n2Cc2cccc(C(=N)N)c2)cc1.O=C(O)C(F)(F)F.O=C(O)C(F)(F)F | 90 °C (dec.)
CC(=O)O.CC(=O)[O-].Cc1cccc2c1cc(C(=O)NCc1ccc([N+](C)(C)C)cc1)n2Cc1cccc(C(=N)N)c1 | 89 °C (dec.)
Cc1cccc2c1cc(C(=O)NCc1ccc([N+](C)(C)Cc3ccccc3)cc1)n2Cc1cccc(C(=N)N)c1.O=C(O)C(F)(F)F.O=C([O-])C(F)(F)F | 113 °C (dec.)
N=C(N)c1ccc(Cn2c(C(=O)NCc3ccc(Cl)cc3)cc3ccccc32)cc1.O=C(O)C(F)(F)F | 268 °C (dec.)
CC(=O)O.CC(=O)[O-].C[N+](C)(C)c1ccc(CNC(=O)c2cc3cc(F)ccc3n2Cc2cccc(C(=N)N)c2)cc1 | 172 °C (dec.)
COc1cccc2c1cc(C(=O)NC(c1ccccc1)c1ccncc1)n2Cc1cccc(C(=N)N)c1.O=C(O)C(F)(F)F.O=C(O)C(F)(F)F (racemic) | 105 °C
CC(=O)O.C[N+](C)(C)c1ccc(CNC(=O)c2cc3cc(S(C)(=O)=O)ccc3n2Cc2cccc(C(=N)N)c2)cc1.O=C([O-])C(F)(F)F | 70 °C (dec.)
COC(=O)c1cccc(CNC(=O)c2cc3c(O)cccc3n2Cc2cccc(C(=N)N)c2)c1 (as salt: trifluoroacetic acid salt) [Example 132] | 95 °C
N=C(N)c1cccc(Cn2c(C(=O)NCc3cc(Cl)cc(Cl)c3)cc3c(O)cccc32)c1 (as salt: trifluoroacetic acid salt) [Example 120] | 117 °C
N=C(N)c1ccc(Cn2c(C(=O)NC(c3ccccc3)c3ccncc3)cc3ccccc32)cc1.O=C(O)C(F)(F)F.O=C(O)C(F)(F)F (racemic) | 150 °C
Cl.N=C(N)c1ccc(Cn2c(C(=O)NCc3ccccc3)cc3ccccc32)cc1 | 266 to 268 °C (dec.)

Compound | melting point
C#CC[N+](C)(C)c1ccc(CNC(=O)c2cc3cc(F)ccc3n2Cc2cccc(C(=N)N)c2)cc1.CC(=O)O.CC(=O)[O-] | 109 °C (dec.)
N=C(N)c1cccc(CNC(=O)c2cc3cc(OCc4ccccc4)ccc3n2Cc2cccc(C(=N)N)c2)c1 (as salt: hydroiodid) [Example 59, 1-(3-Amidino-benzyl)-5-benzyloxy-1H-indole-2-carboxylic acid 3-amidino-benzylamide dihydroiodide] | 138 °C (dec.)
CN(C)c1ccc(CNC(=O)c2cn(Cc3cccc(C(=N)N)c3)c3ccccc23)cc1.O=C(O)C(F)(F)F.O=C(O)C(F)(F)F | 92 to 96 °C
N=C(N)c1cccc(CNC(=O)c2c(Cl)c3ccccc3n2Cc2cccc(C(=N)N)c2)c1 (as salt: trifluoroacetic acid salt) [Example 115] | 227 °C
COc1cccc2c1cc(C(=O)NCCc1ccc(O)cc1)n2Cc1cccc(/C(N)=N/O)c1 [Example 51, 1-(3-Hydroxyamidino-benzyl)-4-methoxy-1H-indole-2-carboxylic acid 2-(4-hydroxy-phenyl)-ethyl amide] | 173 to 175 °C (dec.)
COc1cccc2c1cc(C(=O)NCCc1ccncc1)n2Cc1cccc(/C(N)=N/O)c1 [Example 49, 1-(3-Hydroxyamidino-benzyl)-4-methoxy-1H-indole-2-carboxylic acid 2-(4-pyridyl)-ethyl amide] | 220 to 222 °C
CC(=O)O.CC(=O)[O-].COc1ccc2c(c1)cc(C(=O)NCc1ccc([N+](C)(C)C)cc1)n2Cc1cccc(C(=N)N)c1 | 94 °C (dec.)
COc1cccc2c1cc(C(=O)NC(c1ccccc1)c1cc[n+](C)cc1)n2Cc1cccc(C(=N)N)c1.O=C(O)C(F)(F)F.O=C([O-])C(F)(F)F (racemic) [Example 24, (RS)-4-({[1-(3-Amidino-benzyl)-4-methoxy-1H-indole-2-carbonyl]-amino}-phenyl-methyl)-1-methyl-pyridinium trifluoroacetate trifluoroacetic acid salt] | 135 °C
CN(C)c1ccc(CNC(=O)c2cc3cc(Cl)ccc3n2Cc2cccc(/C(N)=N/O)c2)cc1 [Example 52, 1-(3-Hydroxyamidino-benzyl)-5-chloro-1H-indole-2-carboxylic acid (4-dimethylamino)-benzyl amide] | 200 °C (dec.)
C[N+](C)(C)c1ccc(CNC(=O)c2cc3cc(N)ccc3n2Cc2cccc(C(=N)N)c2)cc1.O=C(O)C(F)(F)F.O=C(O)C(F)(F)F.O=C([O-])C(F)(F)F | 114 °C (dec.)
COc1cccc2c1cc(C(=O)NCCc1ccc(O)cc1)n2Cc1cccc(C(=N)N)c1.O=C(O)C(F)(F)F | 140 to 142 °C
Cc1cccc2c1cc(C(=O)NCc1ccc([N+](C)(C)C)cc1)n2Cc1cccc(C(=N)N)c1.O=C(O)C(F)(F)F.O=C([O-])C(F)(F)F [Example 35, [4-({[1-(3-Amidino-benzyl)-4-methyl-1H-indole-2-carbonyl]-amino}-methyl)-phenyl]-trimethyl-ammonium trifluoroacetate trifluoroacetic acid salt] | 81 °C (dec.)
CC(=O)O.CC(=O)O.Cc1cccc2c1cc(C(=O)OCc1cccc(C(=N)N)c1)n2Cc1cccc(C(=N)N)c1 | 53 °C (dec.)
Cc1cccc2c1cc(C(=O)NCc1ccc(N(C)C)cc1)n2Cc1cccc(C(=N)N)c1.O=C(O)C(F)(F)F.O=C(O)C(F)(F)F | 106 °C (dec.)
N=C(N)c1cccc(COC(=O)c2cc3ccccc3n2Cc2cccc(C(=N)N)c2)c1.O=C(O)C(F)(F)F.O=C(O)C(F)(F)F | 258 °C
CN(C)c1ccc(CNC(=O)c2cc3ccccc3n2Cc2cccnc2)cc1 | 108 to 110 °C
CC(=O)O.C[C@@H](NC(=O)c1cc2cc(OCc3ccccc3)ccc2n1Cc1cccc(C(=N)N)c1)c1ccccc1 | 72 °C (dec.)
C[N+](C)(C)c1ccc(CNC(=O)c2cc3cc([N+](=O)[O-])ccc3n2Cc2cccc(C(=N)N)c2)cc1.O=C(O)C(F)(F)F.O=C([O-])C(F)(F)F | 120 °C (dec.)
